Data from US5202266A, “25-hydroxy vitamin D3 derivatives, process for their production, and assay method using the same” (Asahi Kasei Kogyo Kabushiki Kaisha, priority 1987, dated 1993).

Key:
[1] = Storage stability of [125I]-labeled derivative, checked by CPBA standard curve using DBP; type: physicochemical; details: 50% H2O-ethanol solution, -20° C., argon atmosphere, day 0, 21 and 49; FIG. 6
Procedure: A standard ethanol solution of 25-hydroxy vitamin D3 (1,024 pg/20 μl) was diluted stepwise by two-fold dilutions to prepare 32 pg/20 μl, 16 pg/20 μl, 8 pg/20 μl, 4 pg/20 μl, 2 pg/20 μl and 1 pg/20 μl.
Samples (20 μl) of each concentration hereinabove were pipetted into two tubes. Aliquots of an ethanol solution, each 20 μl, of radioisotope iodine [125I]-labeled 25-hydroxy vitamin D3 derivative, containing as an antioxidant tocopherol, were pipetted into each tube (20 μl, ca. 30,000 cpm) DBP diluted with tris buffer, pH 8.6 (approx. 500-1,000 dilution of DBP fraction in (1) hereinabove) each 500 μl, was stirred and allowed to stand at 4° C. for 16 hours.
Glycine buffer, pH 8.6, suspending a mixture of dextran (T70) and active charcoal (1:10) (each 30 μl), was added into the reaction tubes, stirred and incubated at 4° C. for 30 mins. B-F separation was made by centrifugation at 3,000 r.p.m. for 10 mins. at 4° C., and each supernatant solution 500 μl was measured by an Autowell γ-counterfor 1 min. The ratio of binding is calculated by the following equation: [formula] wherein (B) is the count number in each tube, (NSB)-- is the count number measured by using 25-hydroxy vitamin D3 (1,024 pg/20 μl) instead of ^12 5I-labeled 25-hydroxy vitamin D3 derivative and (Bo) is the count number measured by using 25-hydroxy vitamin D3 at zero concentration.
A 50% H2 O-ethanol solution of [^125 I] […]

[2] = tested on: Anti-25-hydroxy vitamin D3 rabbit serum; assay: Radio immunoassay standard curve of 25-hydroxy vitamin D3 using the labeled derivative as tracer; type: binding; details: RIA; for sensitivity of assay, monoiodine vs diiodine [125I] labeling: FIG. 3; for standard curve result by methylene chain length n in R1: FIG. 4, n=1, n=2, n=3 compared
Procedure: A standard ethanol solution of 25-hydroxy vitamin D3 (256 pg/20 μl) was diluted stepwise by two-fold dilution to prepare 128 pg/20 μl, 64 pg/μl, 32 pg/20 μl, 16 pg/20 μl, 8 pg/20 μl, 4 pg/20 μl and 2 pg/20 μl samples.
Samples (20 μl) of each concentration hereinabove were pipetted into three tubes. Ethanol solutions, each 20 μl, of radioisotope iodine [^125 I]-labeled 25-hydroxy vitamin D3 derivative which contains as an antioxidant tocopherol was pipetted into each tube (20 μl, ca. 13,000 cpm).
Anti-25-hydroxy vitamin D3 rabbit serum diluted with tris buffer (approx. 15,000 dilution) pH 8.6, each 1 ml, was added to each tube. Each mixture in the tubes was stirred in a BORTEX mixer and allowed to stand at 5° C. overnight (20-24 hours). Glycine buffer (pH 8.6) suspending a mixture of dextran (T70) and active charcoal (1:10), each 300 μl) was added into the reaction tubes, and each was stirred by a BORTEX mixer and incubated at 5° C. for 1 hour. B-F separation was performed by centrifugation at 3,000 r.p.m. for 10 mins., and each supernatant solution (1 ml) was measured by an Autowell γ-counter for 1 min. The ratio of binding is calculated by the following equation: [formula] wherein (B) is the count number in each tube, (BL) is the count number measured by using 25-hydroxy vitamin D3 (1,000 pg/20 μl) in place of isotope ^125 I-labeled 25-hydroxy vitamin D3 derivative, and (Bo) is the count number measured by using 25-hydroxy vitamin D3 at zero concentration.
A standard curve was prepared by using tritium [^3 H]-labeled 25-hydroxy vitamin D3 derivative (26, 27-methyl-^3 H) as in the case of the [^125 I]-labeled derivative in (1) hereinabove.
Monoiodine [^125 I] labeling and diiodine [^125 I] labeling were compared according to the same method as hereinabove. In FIG. 3, -- -- -- indicates monoiodine [^125 I] labeling, and -- -- -- indicates diiodine [^125 I] labeling.
In formula [IV], assays using compounds having methylene R1 [--CH2)n--] wherein n=1, n=2 and n=3, are compared with each other.

Row | Structure (SMILES) | stability: change of standard curve after storage [1] | sensitivity of assay, monoiodine vs diiodine [125I] labeling [2] | standard curve result by methylene chain length n in R1 [2]
1 | C=C1CC[C@H](OC(=O)CCNC(=O)CCc2ccc(O)c([125I])c2)C/C1=C/C=C1\CCC[C@]2(C)[C@@H]([C@H](C)CCCC(C)(C)O)CC[C@@H]12 [Example 4, 25-hydroxy vitamin D3 --3β--O--{3-[N-3-(4-hydroxy-3-iodo [^125 I]phenyl)propionyl]amino propionate}] | no changes of the standard curve within a range of 2-32 pg/Test were observed | almost the same sensitivity | –
2 | C=C1CC[C@H](OC(=O)CCNC(=O)CCc2cc([125I])c(O)c([125I])c2)C/C1=C/C=C1\CCC[C@]2(C)[C@@H]([C@H](C)CCCC(C)(C)O)CC[C@@H]12 [Example 5] | no changes of the standard curve within a range of 2-32 pg/Test were observed | almost the same sensitivity | –
3 | C=C1CC[C@H](OC(=O)CCNC(=O)CCc2ccc(O)c([125I])c2)C/C1=C/C=C1\CCC[C@]2(C)[C@@H]([C@H](C)CCCC(C)(C)O)CC[C@@H]12 [n=2] | – | – | good results as compared with n=1
4 | C=C1CC[C@H](OC(=O)CCCNC(=O)CCc2ccc(O)c([125I])c2)C/C1=C/C=C1\CCC[C@]2(C)[C@@H]([C@H](C)CCCC(C)(C)O)CC[C@@H]12 [n=3] | – | – | good results as compared with n=1
